In one series the test system is Mus musculus. Description: Inhibition of LPS-induced endotoxic shock in C57BL/6 mouse model serum assessed as decrease in IL-1beta level at 20 mg/kg, ip measured after 12 hrs. The series is classed as functional, organism-based.
Series [1] has as its target T1, Protein deacetylase HDAC6 (Homo sapiens, UniProt Q9UBN7).
T1 sequence (Q9UBN7 whole entry): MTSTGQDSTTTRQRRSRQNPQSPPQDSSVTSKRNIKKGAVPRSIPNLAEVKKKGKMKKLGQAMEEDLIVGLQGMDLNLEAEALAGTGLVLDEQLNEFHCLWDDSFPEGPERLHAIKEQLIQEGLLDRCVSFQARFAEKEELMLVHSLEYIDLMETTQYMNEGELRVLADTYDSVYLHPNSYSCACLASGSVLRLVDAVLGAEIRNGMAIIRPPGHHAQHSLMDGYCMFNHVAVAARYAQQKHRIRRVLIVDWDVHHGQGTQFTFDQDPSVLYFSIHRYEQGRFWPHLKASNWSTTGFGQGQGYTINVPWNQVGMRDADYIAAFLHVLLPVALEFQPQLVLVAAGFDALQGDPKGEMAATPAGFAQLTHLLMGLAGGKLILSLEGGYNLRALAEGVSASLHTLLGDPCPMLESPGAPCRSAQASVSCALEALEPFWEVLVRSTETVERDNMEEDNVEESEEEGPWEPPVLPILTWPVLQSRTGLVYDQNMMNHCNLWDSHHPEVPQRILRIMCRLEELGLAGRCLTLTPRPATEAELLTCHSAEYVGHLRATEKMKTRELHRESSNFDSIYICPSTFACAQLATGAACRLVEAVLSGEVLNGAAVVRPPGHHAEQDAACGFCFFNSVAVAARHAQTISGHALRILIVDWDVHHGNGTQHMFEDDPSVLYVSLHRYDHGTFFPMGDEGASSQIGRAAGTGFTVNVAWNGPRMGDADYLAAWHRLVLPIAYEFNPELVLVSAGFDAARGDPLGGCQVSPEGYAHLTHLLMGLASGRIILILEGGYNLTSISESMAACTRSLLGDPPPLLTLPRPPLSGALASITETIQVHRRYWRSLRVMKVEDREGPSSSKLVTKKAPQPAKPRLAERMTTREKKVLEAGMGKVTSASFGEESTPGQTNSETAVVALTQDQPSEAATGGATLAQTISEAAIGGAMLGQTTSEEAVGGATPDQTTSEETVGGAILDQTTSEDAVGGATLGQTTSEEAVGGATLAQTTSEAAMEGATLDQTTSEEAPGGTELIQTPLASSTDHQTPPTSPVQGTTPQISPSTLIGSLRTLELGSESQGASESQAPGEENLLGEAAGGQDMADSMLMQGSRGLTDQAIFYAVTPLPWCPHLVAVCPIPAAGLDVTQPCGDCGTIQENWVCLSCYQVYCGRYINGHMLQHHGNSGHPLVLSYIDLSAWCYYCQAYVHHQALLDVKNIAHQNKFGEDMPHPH
As to the kind of experiment: Binding affinity to recombinant HDAC6 (unknown origin) assessed as inhibition constant using Boc-Lys(acetyl)-AMC as substrate preincubated for 1 hr followed by substrate addition and measured after 2 hrs by fluorescence based microplate reader analysis.

The target in the next series is Histone deacetylase 1 (Homo sapiens, UniProt Q13547). Description: Inhibition of recombinant HDAC1 (unknown origin) using Boc-Lys(acetyl)-AMC as substrate preincubated for 1 hr followed by substrate addition and measured after 2 hrs by fluorescence based microplate reader analysis.
For the next series, the target named is T2, Histone deacetylase 7 (Homo sapiens, UniProt Q8WUI4).
T2 sequence (Q8WUI4 whole entry): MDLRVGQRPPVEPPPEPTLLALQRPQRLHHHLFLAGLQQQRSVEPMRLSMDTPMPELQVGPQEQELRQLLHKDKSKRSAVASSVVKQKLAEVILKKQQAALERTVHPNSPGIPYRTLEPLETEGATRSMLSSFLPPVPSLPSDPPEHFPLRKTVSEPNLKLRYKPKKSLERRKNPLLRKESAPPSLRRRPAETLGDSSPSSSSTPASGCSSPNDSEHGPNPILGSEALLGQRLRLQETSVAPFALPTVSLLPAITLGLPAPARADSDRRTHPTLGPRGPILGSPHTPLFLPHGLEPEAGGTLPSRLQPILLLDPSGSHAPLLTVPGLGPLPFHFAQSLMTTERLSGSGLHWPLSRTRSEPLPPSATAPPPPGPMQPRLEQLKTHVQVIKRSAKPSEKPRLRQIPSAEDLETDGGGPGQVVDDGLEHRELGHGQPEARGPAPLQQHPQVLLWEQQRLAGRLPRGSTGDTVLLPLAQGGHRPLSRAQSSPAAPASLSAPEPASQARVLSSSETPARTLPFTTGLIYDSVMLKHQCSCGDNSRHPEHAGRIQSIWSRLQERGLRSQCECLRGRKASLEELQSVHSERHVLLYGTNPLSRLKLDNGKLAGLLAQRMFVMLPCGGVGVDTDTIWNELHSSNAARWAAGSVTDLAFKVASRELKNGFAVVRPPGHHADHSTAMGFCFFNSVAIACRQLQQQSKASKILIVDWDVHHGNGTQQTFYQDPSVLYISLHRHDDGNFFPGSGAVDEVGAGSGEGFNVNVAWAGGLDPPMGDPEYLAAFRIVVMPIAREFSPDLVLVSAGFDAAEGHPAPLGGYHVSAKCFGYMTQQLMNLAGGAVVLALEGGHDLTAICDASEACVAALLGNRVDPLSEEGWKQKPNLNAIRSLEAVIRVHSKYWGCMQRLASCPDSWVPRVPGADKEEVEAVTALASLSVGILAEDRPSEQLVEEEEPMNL
Description: Inhibition of recombinant HDAC7 (unknown origin) using Boc-Lys (trifluoroacetyl) AMC as substrate preincubated for 1 hr followed by substrate addition and measured after 2 hrs by fluorescence based microplate reader analysis.

Series [2] can be described thus: Half life in CD-1 mouse at 5 mg/kg, iv measured after 0.083 to 24 hrs by LC-MS/MS analysis. The series is classed as ADME, organism-based. Particulars: in vivo, time 0.083-24 hrs.
The nature of series [3]: Ratio of drug concentration in brain to plasma of CD-1 mouse measured after 2 hrs by LC-MS/MS analysis. The series is classed as ADME. The conditions noted are these: read-out: BPR.
A short description of series [4]: Cmax in CD-1 mouse at 5 mg/kg, iv measured after 0.083 to 24 hrs by LC-MS/MS analysis. In kind it is ADME, organism-based. The arrangement: dose 5 mg/kg, time 0.083-24 hrs, route iv. The conditions noted are these: in vivo.
Series [5] can be described thus: Plasma concentration in CD-1 mouse at 20 mg/kg measured after 4 hrs by LC-MS/MS analysis. The series is classed as ADME, organism-based.
The target of a further series is Histone deacetylase 9 (Homo sapiens, UniProt Q9UKV0). Description: Inhibition of recombinant HDAC9 (unknown origin) using Boc-Lys (trifluoroacetyl) AMC as substrate preincubated for 1 hr followed by substrate addition and measured after 2 hrs by fluorescence based microplate reader analysis.

pIC50, pKi: −log10 of the molar value. Activity calls are given as the source filed them. No cut-off for these calls is given here.

Chain of Histone deacetylase 1 (Q13547 whole entry): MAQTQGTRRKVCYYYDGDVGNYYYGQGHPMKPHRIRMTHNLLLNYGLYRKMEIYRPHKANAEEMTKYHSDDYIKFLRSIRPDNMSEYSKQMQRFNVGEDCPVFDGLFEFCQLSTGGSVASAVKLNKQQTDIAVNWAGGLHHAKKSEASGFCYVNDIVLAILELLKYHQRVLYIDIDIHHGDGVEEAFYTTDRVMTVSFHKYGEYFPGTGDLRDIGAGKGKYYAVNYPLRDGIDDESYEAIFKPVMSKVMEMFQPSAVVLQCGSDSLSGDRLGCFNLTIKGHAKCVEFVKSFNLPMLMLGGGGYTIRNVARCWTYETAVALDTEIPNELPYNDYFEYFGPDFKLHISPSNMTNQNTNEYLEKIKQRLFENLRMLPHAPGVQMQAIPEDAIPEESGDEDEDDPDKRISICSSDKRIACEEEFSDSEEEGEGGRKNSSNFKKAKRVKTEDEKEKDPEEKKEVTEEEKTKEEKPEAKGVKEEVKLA
Chain of Histone deacetylase 9 (Q9UKV0 whole entry): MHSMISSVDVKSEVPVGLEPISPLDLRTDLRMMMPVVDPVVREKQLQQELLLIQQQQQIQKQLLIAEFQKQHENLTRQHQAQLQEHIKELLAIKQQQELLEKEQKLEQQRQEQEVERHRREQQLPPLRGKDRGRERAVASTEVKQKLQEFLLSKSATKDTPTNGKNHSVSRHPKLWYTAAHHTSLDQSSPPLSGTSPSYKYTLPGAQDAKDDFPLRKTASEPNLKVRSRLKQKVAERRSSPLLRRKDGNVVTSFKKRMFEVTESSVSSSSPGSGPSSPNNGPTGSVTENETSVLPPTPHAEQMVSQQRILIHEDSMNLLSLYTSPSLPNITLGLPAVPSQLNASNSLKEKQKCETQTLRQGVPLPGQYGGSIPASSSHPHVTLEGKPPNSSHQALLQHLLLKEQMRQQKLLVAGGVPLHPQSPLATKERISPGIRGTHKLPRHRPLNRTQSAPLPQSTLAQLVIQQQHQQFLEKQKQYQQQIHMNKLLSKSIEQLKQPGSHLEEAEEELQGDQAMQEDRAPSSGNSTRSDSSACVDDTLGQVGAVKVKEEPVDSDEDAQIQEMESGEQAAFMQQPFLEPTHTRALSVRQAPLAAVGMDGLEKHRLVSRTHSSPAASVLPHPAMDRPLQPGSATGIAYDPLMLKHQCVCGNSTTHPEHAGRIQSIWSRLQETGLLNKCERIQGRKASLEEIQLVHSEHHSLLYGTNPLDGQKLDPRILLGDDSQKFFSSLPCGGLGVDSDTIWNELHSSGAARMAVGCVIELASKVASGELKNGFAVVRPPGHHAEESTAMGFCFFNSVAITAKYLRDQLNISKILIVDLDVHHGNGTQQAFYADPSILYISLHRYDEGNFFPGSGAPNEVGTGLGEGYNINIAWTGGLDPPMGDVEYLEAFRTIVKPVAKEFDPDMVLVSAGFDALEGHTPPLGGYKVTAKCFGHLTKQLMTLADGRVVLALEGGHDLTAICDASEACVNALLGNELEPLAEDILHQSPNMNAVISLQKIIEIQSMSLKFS

Consider `CCNNC(=O)c1ccc(CN2c3ccccc3C=Cc3ccncc32)cc1`, for which the result with Mus musculus was Active. For the same compound, the pKi in series [1] is 8.52. For the same compound, the pIC50 is 5.82 at Histone deacetylase 1, less than 5.30 on Histone deacetylase 7 and less than 5.30 at Histone deacetylase 9. In addition, in [2], the half-life is 7.95 h. In series [3], the Kp at 2 h is 1.42. The peak level in series [4] (Cmax) was 4.6 µg/mL. The same compound registered a concentration at 4 h in [5] of 0.162 µg/mL.

By pKi is commonly meant the Ki on a negative log10 scale, so that one unit is a factor of ten. In general, pIC50 refers to the negative decadic logarithm of the IC50, by convention in mol/L. In general, half-life refers to the time in which the quantity being followed falls by half. The low end stands for rapid decline, the high end for slow decline. By Cmax is commonly meant the maximum level reached in the sampled fluid or tissue.

(Values after ChEMBL document CHEMBL5113527, “First-in-Class Hydrazide-Based HDAC6 Selective Inhibitor with Potent Oral Anti-Inflammatory Activity by Attenuating NLRP3 Inflammasome Activation” (J Med Chem, 2022).)
